Experimental data as given in patent US11591634B1, “Forecasting bacterial survival-success and adaptive evolution through multiomics stress-response mapping and machine learning” (priority 2019, dated 2023).
Values after ≈ are worked out from the molar mass of the structure shown.

Tests used:
[1] = test system: antibiotic-adapted S. pneumoniae T4 (aT4); test: Fitness outcome under antibiotic exposure (growth curve assay); format: cell-based, Streptococcus pneumoniae
Experimental: (§1) To test whether a gene-panel model can be trained that predicts fitness for many different conditions, a large RNA-Seq dataset was generated for the human pathogen Streptococcus pneumoniae. […] These include cell wall synthesis inhibitors (CWSI), DNA synthesis inhibitors (DSI), protein synthesis inhibitors (PSI) and RNA synthesis inhibitors ((RSI); FIG. 1A, Tables 1 & 2). Each strain was exposed to each antibiotic for 2 to 4 hours and cells were harvested for RNA-Seq at various time points. As T4 and 19F are susceptible to most antibiotics used, the transcriptional profiles in the presence of antibiotics mostly represent cases of low fitness (FIG. 1A, sensitive strain, 1xMICWT). In order to find patterns that differentiate fitness outcomes, adapted strains were generated with increased fitness in the presence of antibiotics by serial passaging wildtype T4 and 19F in the presence of increasing amounts of antibiotics. Four independent adapted populations for each strain were selected on individual antibiotics. These adapted strains could grow in the presence of antibiotic at 1.5xMIC of the wildtype strain, albeit with a small growth defect (FIGS. 6A-6E & 6F). In parallel, RNA-Seq was performed on S. pneumoniae strains D39 and T4 in a chemically defined medium, and media from which either uracil, Glycine or L-Valine was removed, which are essential for D39 but not T4. This enabled the potential identification of a common stress signature that is shared between antibiotic exposure and nutrient deprivation, and across multiple strains. Lastly, D39 was adapted to grow in the absence of each individual nutrient, after which RNA-Seq was repeated for adapted clones (Table 1 lists all 24 strains, 67 populations and 267 RNA-Seq experiments).
(§2) S. pneumoniae strain TIGR4 (T4; NC_003028.3) is a serotype 4 strain originally isolated from a patient^3,4, Taiwan-19F (19F; NC_012469.1) is a multi-drug resistant strain^5,6 and D39 (NC_008533) is a commonly used serotype 2 strain originally isolated from a patient about 90 years ago^7. Strain PG1 and PG19 were isolated from adults with pneumococcal bacteremia infection and included in the Pneumococcal Bacteremia Collection Nijmegen (PBCN)^8. All S. pneumoniae gene numbers refer to the T4 genome. Correspondence between homologous genes among S. pneumoniae strains and gene function annotations are described herewith. Escherichia coli strain AR538, Klebsiella pneumoniae strain AR497 and Salmonella enterica subsp Typhimurium strain AR635 were clinical isolates obtained from the Center of Disease Control (CDC). Staphylococcus aureus strain MN6 was kindly provided by George Sakoulas (Center of Immunity, Infection & Inflammation, UCSD School of Medicine). Unless otherwise specified, S. pneumoniae strains were cultivated in Todd Hewitt medium with 5% yeast extract (THY) with 5 μL/mL oxyrase (Oxyrase, Inc) or on sheep's blood agar plates (Northeastern Laboratories) at 37° C. with 5% CO2. A. baumannii, E. coll. K. pneumoniae, S. aureus and S. Typhimurium were cultured in Mueller Hinton broth II (Sigma) at 37° C. with 220 rpm constant shaking. Tn-Seq and RNA-Seq experiments of S. pneumoniae under nutrient-depletion and antibiotic conditions were performed in chemically defined medium (CDM)^9 and semi-defined minimal medium (SDMM)^10, respectively. RNA-Seq experiments for A. baumannii, S. Typhimurium, E. coll. K. pneumoniae, and S. aureus were performed in Mueller Hinton broth II. Single strain growth assays were performed at least three times using 96-well plates by taking OD600 measurements on a Tecan Infinite 200 PRO plate reader.
(§3) D39 was used as the parental strain in nutrient-depletion evolution experiments; T4 and 19F were used as parental strains in antibiotic evolution experiments. […] Four replicate populations were serial passaged in CDM or SDMM as controls to identify background adaptations in nutrient or antibiotic adaptation experiments, respectively. […]

[2] = test system: antibiotic-adapted S. pneumoniae 19F (a19F); test: as above; format: cell-based, Streptococcus pneumoniae
Experimental: as §1, §2, §3

[3] = test system: Salmonella Typhimurium AR635; test: Fitness outcome under ciprofloxacin (growth curve assay); format: cell-based; details: S. Typhimurium AR635, 1 μg/mL ciprofloxacin
Experimental: (§4) Since the single-timepoint variant of entropy is the most practical (in terms of data collection and cost), the generalizability of entropy to previously unseen species was evaluated using this model. RNA-Seq was performed at 120 min post exposure to 1 μg/mL of CIP. […] Single-timepoint entropy was computed for the transcriptome of each of these previously unseen isolates.
as §2

Escherichia coli AR538 = test: as above; format: cell-based; details: E. coli AR538
Experimental: as §4, §2

[4] = test system: Klebsiella pneumoniae AR497; test: as above; format: cell-based; details: K. pneumoniae AR497
Experimental: as §4, §2

[5] = test system: Staphylococcus aureus MN6; test: as above; format: cell-based; details: S. aureus MN6
Experimental: as §4, §2

[6] = test system: Acinetobacter baumannii 17978; test: as above; format: cell-based; details: A. baumannii 17978; 1 μg/mL ciprofloxacin
Excerpt: as §2, with “K. pneumoniae, S. aureus and S. Typhimurium were cultured in Mueller Hinton broth II (Sigma) at 37° C. with 220 rpm constant shaking. Tn-Seq and RNA-Seq experiments of S. pneumoniae under nutrient-depletion and antibiotic conditions were performed in chemically defined medium (CDM)^9 and semi-defined minimal medium (SDMM)^10, respectively. RNA-Seq experiments for A. baumannii, S. Typhimurium, E. coll. K. pneumoniae, and S. aureus were performed in Mueller Hinton broth II.” left out

[7] = test system: Acinetobacter baumannii LAC-4; test: as above; format: cell-based; details: A. baumannii LAC-4; 1 μg/mL ciprofloxacin
Excerpt: as §2, with “K. pneumoniae, S. aureus and S. Typhimurium were cultured in Mueller Hinton broth II (Sigma) at 37° C. with 220 rpm constant shaking. Tn-Seq and RNA-Seq experiments of S. pneumoniae under nutrient-depletion and antibiotic conditions were performed in chemically defined medium (CDM)^9 and semi-defined minimal medium (SDMM)^10, respectively. RNA-Seq experiments for A. baumannii, S. Typhimurium, E. coll. K. pneumoniae, and S. aureus were performed in Mueller Hinton broth II.” left out

A. baumannii ATCC 17978 [8] = test: Single time-point entropy (RNA-Seq) with linear regression MIC prediction; format: cell-based; details: Acinetobacter baumannii, ATCC17978, 2 h; read-out: predicted MIC (linear regression model on entropy)
[9] = test system: S. pneumoniae serotype 23F; test: Fitness outcome under ciprofloxacin (growth curve assay); format: cell-based, Streptococcus pneumoniae; details: S. pneumoniae 23F
Experimental: as §4, §2

S. pneumoniae serotype 1 = test: as above; format: cell-based, Streptococcus pneumoniae; details: 1 μg/mL ciprofloxacin
Experimental: as §4, §2

A. baumannii ATCC 17978 [10] = test: Ciprofloxacin MIC determination by growth curves; format: cell-based; details: Acinetobacter baumannii, ATCC17978, read-out: measured MIC
Experimental: (§5) Each concentration was tested in triplicate. Growth was monitored on a Tecan Infinite 200 PRO plate reader at 37° C. for 16 hours. MIC is determined as the lowest concentration that abolishes bacterial growth (FIGS. 6A-6H).

A. baumannii LAC-4 = test: Ciprofloxacin MIC determination by growth curves; format: cell-based; details: Acinetobacter baumannii, LAC4, read-out: measured MIC
Experimental: as §5

[11] = 1 μg/mL ciprofloxacin, listed as CIP
[12] = 1 μg/mL ciprofloxacin, listed as ciprofloxacin
[13] = strain-specific 1xMIC of ciprofloxacin

SMILES: O=C(O)c1cn(C2CC2)c2cc(N3CCNCC3)c(F)cc2c1=O [Ciprofloxacin, ciprofloxacin]
- Fitness ([1]; aT4, T4 adapted to the respective antibiotic, 1xMIC and 1.5-2xMIC, growth curves): High
- Survive (real survival outcome) ([1]; strain T4, Adapted TRUE, Concentration L (low)): TRUE
- Fitness ([2]; a19F, 19F adapted to the respective antibiotic, 1xMIC and 1.5-2xMIC, growth curves): High
- Survive (real survival outcome) ([2]; strain 19F, Adapted TRUE, Concentration L (low)): TRUE
- Fitness [3]: Low
- Fitness ([3]; listed as ciprofloxacin): low fitness
- Fitness (Escherichia coli AR538; 1 μg/mL ciprofloxacin): High
- Fitness (Escherichia coli AR538; [11]): insensitive
- Fitness (Escherichia coli AR538; [12]): high fitness
- Fitness (Escherichia coli AR538; [13]): Low,
- Fitness ([4]; 1 μg/mL ciprofloxacin): High
- Fitness [4, 11]: insensitive
- Fitness [4, 12]: high fitness
- Fitness [4, 13]: Low,
- Fitness ([5]; 1 μg/mL ciprofloxacin): High
- Fitness [5, 11]: insensitive
- Fitness [5, 13]: Low,
- Fitness [6]: Low
- Fitness [7]: High
- MIC (A. baumannii ATCC 17978 [8]): 0.04 µg/mL (≈ 0.121 µM)
- Fitness ([9]; 1 μg/mL ciprofloxacin): High
- Fitness [9, 11]: insensitive
- Fitness [9, 12]: high fitness
- Fitness [9, 13]: Low,
- Fitness (S. pneumoniae serotype 1): Low
- Fitness (S. pneumoniae serotype 1; listed as ciprofloxacin): low fitness
- MIC (A. baumannii ATCC 17978 [10]): 0.07 µg/mL (≈ 0.211 µM)
- MIC (A. baumannii LAC-4): 8.5 µg/mL (≈ 25.7 µM)
